ChEMBL document CHEMBL5241112, “Insights into the recent progress in the medicinal chemistry of pyranopyrimidine analogs” (RSC Med Chem, 2022)
Values after ≈ are worked out from the molar mass of the structure shown.

Key:
Staphylococcus aureus [1] = test: Antimicrobial activity against Staphylococcus aureus assessed as diameter of inhibition zone at 1.2 mg/ml incubated for 12 hrs by agar disk diffusion method; type: functional
Bacillus cereus [2] = test: Antimicrobial activity against Bacillus cereus assessed as diameter of inhibition zone at 2.5 mg/ml incubated for 12 hrs by agar disk diffusion method; type: functional
Pseudomonas aeruginosa [3] = test: Antimicrobial activity against Pseudomonas aeruginosa assessed as diameter of inhibition zone at 1.2 mg/ml incubated for 12 hrs by agar disk diffusion method; type: functional
Pseudomonas aeruginosa [4] = test: Antimicrobial activity against Pseudomonas aeruginosa assessed as diameter of inhibition zone at 2.5 mg/ml incubated for 12 hrs by agar disk diffusion method; type: functional
Escherichia coli [5] = test: Antimicrobial activity against Escherichia coli assessed as diameter of inhibition zone at 2.5 mg/ml incubated for 12 hrs by agar disk diffusion method; type: functional
Pseudomonas aeruginosa [6] = test: Antibacterial activity against Pseudomonas aeruginosa ATCC 27853 assessed as inhibition of bacterial growth incubated for 24 hrs by broth macrodilution method; type: functional
Escherichia coli [7] = test: Antibacterial activity against Escherichia coli ATCC 25922 assessed as diameter of inhibition zone incubated for 24 hrs by disc diffusion assay; type: functional
Staphylococcus aureus [8] = test: Antimicrobial activity against Staphylococcus aureus assessed as diameter of inhibition zone at 5.0 mg/ml incubated for 12 hrs by agar disk diffusion method; type: functional
Bacillus cereus [9] = test: Antimicrobial activity against Bacillus cereus assessed as diameter of inhibition zone at 5.0 mg/ml incubated for 12 hrs by agar disk diffusion method; type: functional
Bacillus cereus [10] = test: Antimicrobial activity against Bacillus cereus assessed as diameter of inhibition zone at 1.2 mg/ml incubated for 12 hrs by agar disk diffusion method; type: functional
Pseudomonas aeruginosa [11] = test: Antibacterial activity against Pseudomonas aeruginosa ATCC 27853 assessed as diameter of inhibition zone incubated for 24 hrs by disc diffusion assay; type: functional
Escherichia coli [12] = test: Antimicrobial activity against Escherichia coli assessed as diameter of inhibition zone at 5.0 mg/ml incubated for 12 hrs by agar disk diffusion method; type: functional
Escherichia coli [13] = test: Antibacterial activity against Escherichia coli ATCC 25922 assessed as inhibition of bacterial growth incubated for 24 hrs by broth macrodilution method; type: functional
Pseudomonas aeruginosa [14] = test: Antimicrobial activity against Pseudomonas aeruginosa assessed as diameter of inhibition zone at 5.0 mg/ml incubated for 12 hrs by agar disk diffusion method; type: functional
Staphylococcus aureus [15] = test: Antimicrobial activity against Staphylococcus aureus assessed as diameter of inhibition zone at 2.5 mg/ml incubated for 12 hrs by agar disk diffusion method; type: functional
Escherichia coli [16] = test: Antimicrobial activity against Escherichia coli assessed as diameter of inhibition zone at 1.2 mg/ml incubated for 12 hrs by agar disk diffusion method; type: functional
Candida albicans [17] = test: Antifungal activity against Candida albicans assessed as inhibition of fungal growth; type: functional
Escherichia coli [18] = test: Antibacterial activity against Escherichia coli assessed as inhibition of bacterial growth; type: functional
Aspergillus niger = test: Antifungal activity against Aspergillus niger assessed as inhibition of fungal growth; type: functional
Aspergillus flavus = test: Antifungal activity against Aspergillus flavus assessed as inhibition of fungal growth; type: functional
Pseudomonas aeruginosa [19] = test: Antibacterial activity against Pseudomonas aeruginosa assessed as inhibition of bacterial growth; type: functional
Staphylococcus aureus [20] = test: Antibacterial activity against Staphylococcus aureus assessed as inhibition of bacterial growth; type: functional
DLD-1 = test: Anticancer activity against human DLD-1 cells assessed as cell growth inhibition incubated for 24 hrs; type: functional, cell-based; conditions: DLD-1, 24 h
NUGC = test: Anticancer activity against human NUGC cells assessed as cell growth inhibition incubated for 24 hrs; type: functional, cell-based
[21] = system: Mycobacterium tuberculosis; test: Antitubercular activity against Mycobacterium tuberculosis H37Rv assessed as bacterial growth inhibition at 100 ug/ml; type: functional
[22] = system: Mycobacterium tuberculosis; test: Antitubercular activity against Mycobacterium tuberculosis H37Rv assessed as bacterial growth inhibition at 250 ug/ml; type: functional
Clostridium tetani = test: Antibacterial activity against Clostridium tetani MTCC 449 assessed as bacterial growth inhibition by broth microdilution method; type: functional
Plasmodium falciparum = test: microbe, parasite or virus in culture
Aspergillus fumigatus [23] = test: Antifungal activity against Aspergillus fumigatus MTCC 227 assessed as fungal growth inhibition by broth microdilution method; type: functional
Candida albicans [24] = test: Antifungal activity against Candida albicans MTCC 3008 assessed as fungal growth inhibition by broth microdilution method; type: functional
Salmonella typhimurium = test: Antibacterial activity against Salmonella typhimurium MTCC 98 assessed as bacterial growth inhibition by broth microdilution method; type: functional, Salmonella enterica subsp. enterica serovar Typhimurium; conditions: Salmonella enterica
MCF7 = test: Anticancer activity against human MCF7 cells assessed as reduction in cell viability incubated for 24 hrs by MTT colorimetric assay; type: functional, cell-based; conditions: MCF7, 24 h
HCT-116 [25] = test: Anticancer activity against human HCT-116 cells assessed as reduction in cell viability incubated for 24 hrs by MTT colorimetric assay; type: functional, cell-based; conditions: HCT-116, 24 h
HepG2 [26] = test: Anticancer activity against human HepG2 cells assessed as reduction in cell viability; type: functional, cell-based
PC-3 = test: Anticancer activity against human PC-3 cells assessed as reduction in cell viability; type: functional, cell-based
DNA topoisomerase II = DNA topoisomerase II (Homo sapiens, UniProt P11388+Q02880); test: Inhibition of DNA topoisomerase 2 (unknown origin); type: protein assay
A549 = test: Anticancer activity against human A549 cells assessed as reduction in cell viability incubated for 24 hrs by MTT assay; type: functional, cell-based; conditions: A549, 24 h
HCT-116 [27] = test: cells; conditions: Homo sapiens
HepG2 [28] = test: Anticancer activity against human HepG2 cells assessed as reduction in cell viability incubated for 24 hrs by MTT colorimetric assay; type: functional, cell-based; conditions: HepG2, 24 h
Alpha-glucosidase = Alpha-glucosidase (Saccharomyces cerevisiae S288c, UniProt P53341+P38158+P07265); test: Inhibition of Saccharomyces cerevisiae alpha-glucosidase preincubated for 5 mins followed by PNP-GLUC substrate addition and measured after 20 mins by spectroscopic analysis; type: protein assay
Albumin = Albumin (Bos taurus, UniProt P02769); test: […] bovine serum albumin denaturation incubated for 23 mins by UV-Visible spectrophotometry
[29] = Inhibition of porcine pancreatic alpha-amylase preincubated for 10 mins followed by substrate starch addition and measured after 10 mins by colorimetric analysis; parameters: species or system Sus scrofa
Staphylococcus aureus [30] = test: Antibacterial activity against Staphylococcus aureus MTCC 87 assessed as diameter of inhibition zone at 0.1 mg/ml incubated for 24 hrs by agar well diffusion method; type: functional; conditions: read-out: DIZ
Escherichia coli [31] = test: Antibacterial activity against Escherichia coli ATCC 25922 assessed as diameter of inhibition zone at 50 mg/ml incubated for 24 hrs by paper disk diffusion method; type: functional; conditions: read-out: DIZ
Aspergillus fumigatus [32] = test: microbe, parasite or virus in culture; type: functional; conditions: ATCC204305, dose 50 mg/ml, time 24 hrs, read-out: DIZ
Staphylococcus aureus [33] = test: Antibacterial activity against Staphylococcus aureus ATCC6538-P assessed as diameter of inhibition zone at 50 mg/ml incubated for 24 hrs by paper disk diffusion method; type: functional; conditions: read-out: DIZ

Chain of Albumin (P02769 whole entry): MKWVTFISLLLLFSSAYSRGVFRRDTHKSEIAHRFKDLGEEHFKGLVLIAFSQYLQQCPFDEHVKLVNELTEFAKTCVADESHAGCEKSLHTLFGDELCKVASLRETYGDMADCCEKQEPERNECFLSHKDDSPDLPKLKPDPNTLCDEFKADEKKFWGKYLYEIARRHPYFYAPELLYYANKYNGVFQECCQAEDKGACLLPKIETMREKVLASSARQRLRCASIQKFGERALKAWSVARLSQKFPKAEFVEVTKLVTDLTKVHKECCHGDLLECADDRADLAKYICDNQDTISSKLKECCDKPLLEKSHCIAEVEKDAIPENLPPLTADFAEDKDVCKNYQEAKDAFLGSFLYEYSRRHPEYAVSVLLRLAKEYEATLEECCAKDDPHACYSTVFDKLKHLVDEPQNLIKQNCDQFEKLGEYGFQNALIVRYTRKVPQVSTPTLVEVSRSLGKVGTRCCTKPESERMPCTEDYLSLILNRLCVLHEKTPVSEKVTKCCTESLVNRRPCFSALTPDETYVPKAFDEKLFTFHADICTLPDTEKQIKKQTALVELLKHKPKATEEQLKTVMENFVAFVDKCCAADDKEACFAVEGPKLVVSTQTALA

GENTAMICIN showed an inhibition zone (IZ) (Staphylococcus aureus [1]) of 11 mm, an inhibition zone (IZ) (Bacillus cereus [2]) of 14 mm and an inhibition zone (IZ) (Pseudomonas aeruginosa [3]) of 11 mm. The inhibition zone (IZ) (Pseudomonas aeruginosa [4]) was 14 mm, the inhibition zone (IZ) (Escherichia coli [5]) was 14 mm and the MIC (Pseudomonas aeruginosa [6]) was 15.4 µg/mL. It also gave an inhibition zone (IZ) (Escherichia coli [7]) of 21.3 mm, an inhibition zone (IZ) (Staphylococcus aureus [8]) of 18 mm and an inhibition zone (IZ) (Bacillus cereus [9]) of 18 mm. For the same molecule, the inhibition zone (IZ) (Bacillus cereus [10]) was 11 mm, the inhibition zone (IZ) (Pseudomonas aeruginosa [11]) was 17.3 mm and the inhibition zone (IZ) (Escherichia coli [12]) was 18 mm. For the same molecule, the MIC (Escherichia coli [13]) was 3.68 µg/mL, the inhibition zone (IZ) (Pseudomonas aeruginosa [14]) was 18 mm and the inhibition zone (IZ) (Staphylococcus aureus [15]) was 14 mm. It also gave an inhibition zone (IZ) (Escherichia coli [16]) of 11 mm.
Work on `N#CC1=C(N)Oc2[nH]c(=O)[nH]c(=O)c2C1c1ccccc1O` (stereo not given) yielded an MIC (Candida albicans [17]) of 125 µg/mL (≈ 419 µM), an MIC (Escherichia coli [18]) of 75 µg/mL (≈ 251 µM) and an MIC (Aspergillus niger) of 162 µg/mL (≈ 545 µM). The MIC (Aspergillus flavus) was 150 µg/mL (≈ 503 µM), the MIC (Pseudomonas aeruginosa [19]) was 25 µg/mL (≈ 83.8 µM) and the MIC (Staphylococcus aureus [20]) was 25 µg/mL (≈ 83.8 µM).
Molecule `N#CC1=C(N)C2C(=NC(n3[nH]c(N)cc3=O)=NC2c2ccc(Cl)cc2)OC1=O` (stereo not given) has an IC50 (DLD-1) of 2130 nM and an IC50 (NUGC) of 2210 nM.
For `Cc1nn(-c2ccccc2)c(-n2ccnc2)c1C1C(C#N)=C(N)Oc2c1c(=O)n(C)c(=O)n2C` (stereo not given), the inhibition at 100 µg/mL [21] was 30%, the inhibition at 250 µg/mL [22] was 37% and the MIC (Clostridium tetani) was 100 µg/mL (≈ 219 µM). The IC50 (Plasmodium falciparum) was 0.082 µg/mL (≈ 0.18 µM), the MIC (Aspergillus fumigatus [23]) was 200 µg/mL (≈ 438 µM) and the MIC (Candida albicans [24]) was 500 µg/mL (≈ 1100 µM). It also gave an MIC (Salmonella typhimurium) of 100 µg/mL (≈ 219 µM).
In the case of `COc1cccc2c1C(=O)c1c(O)c3c(c(O)c1C2=O)C[C@@](O)(C(=O)CO)C[C@@H]3O[C@H]1C[C@H](N)[C@H](O)[C@H](C)O1` [DOXORUBICIN], the IC50 (MCF7) is reported as 467 nM, the IC50 (HCT-116 [25]) is reported as 467 nM and the IC50 (HepG2 [26]) is reported as 7.94 µM. It also gave an IC50 (PC-3) of 0.467 µg/mL (≈ 0.859 µM), an IC50 (DNA topoisomerase II) of 0.94 µM and an IC50 (A549) of 140 nM. The IC50 (HCT-116 [27]) was 2610 nM and the IC50 (HepG2 [28]) was 467 nM.
For `O=C(C1=C(c2ccccc2O)Oc2[nH]c(=S)[nH]c(=O)c2C1c1ccc(Br)cc1)N1CCCCC1` (stereo not given), the IC50 (Alpha-glucosidase) was 6.855 mM, the IC50 (Albumin) was 23.1 µM and the IC50 [29] was 24.7 µM. The zone of inhibition at 100 µg/mL (Staphylococcus aureus [30]) was 9.1 mm.
With `O=c1[nH]cnc2c1C(c1ccc(Cl)cc1)C=C(c1cc3ccccc3oc1=O)O2` (stereo not given) the zone of inhibition at 50000 µg/mL (Escherichia coli [31]) was 10 mm, the zone of inhibition at 50000 µg/mL (Aspergillus fumigatus [32]) was 10 mm and the zone of inhibition at 50000 µg/mL (Staphylococcus aureus [33]) was 10 mm.
Work on `CCOC(=O)C1=C(N)Oc2[nH]c(=O)[nH]c(=O)c2C1c1cccc([N+](=O)[O-])c1` (stereo not given) yielded an IC50 (HepG2 [26]) of 0.25 µg/mL, an IC50 (PC-3) of 0.25 µg/mL (≈ 0.668 µM) and an IC50 (HCT-116 [27]) of 0.25 µg/mL.
With `COC1=CC(=O)C[C@@H](C)[C@]12Oc1c(Cl)c(OC)cc(OC)c1C2=O` [GRISEOFULVIN] the MIC (Candida albicans [24]) was 500 µg/mL (≈ 1420 µM).
